Measurements as given in patent publication US20250340591A1, “COMPOSITION FOR PREVENTING OR TREATING INFLAMMATORY BOWEL DISEASE CONTAINING NOVEL COMPOUND” (ANYGEN CO., LTD., priority 2021, published 2025).
Where two headings read alike, the source gives them in different places. Square brackets hold non-standard residues; d marks the D form. Peptide text beside a SMILES is read from it. * marks the point of attachment. His(Trt) = N[C@@H](Cc1cn(C(c2ccccc2)(c2ccccc2)c2ccccc2)cn1)C(=O)O; dHis(Trt) = N[C@H](Cc1cn(C(c2ccccc2)(c2ccccc2)c2ccccc2)cn1)C(=O)O; His(τ-CHPh2) = N[C@@H](Cc1cn(C(c2ccccc2)c2ccccc2)cn1)C(=O)O; sY = N[C@@H](Cc1ccc(OS(=O)(=O)O)cc1)C(=O)O; dPhe(4-Me) = Cc1ccc(C[C@@H](N)C(=O)O)cc1; Dmt = Cc1cc(O)cc(C)c1C[C@H](N)C(=O)O; Octanoyl = CCCCCCCC(=O)*

Molecular target: T1, GPR39 (Homo sapiens, UniProt O43194)
T1 sequence (O43194 1-453): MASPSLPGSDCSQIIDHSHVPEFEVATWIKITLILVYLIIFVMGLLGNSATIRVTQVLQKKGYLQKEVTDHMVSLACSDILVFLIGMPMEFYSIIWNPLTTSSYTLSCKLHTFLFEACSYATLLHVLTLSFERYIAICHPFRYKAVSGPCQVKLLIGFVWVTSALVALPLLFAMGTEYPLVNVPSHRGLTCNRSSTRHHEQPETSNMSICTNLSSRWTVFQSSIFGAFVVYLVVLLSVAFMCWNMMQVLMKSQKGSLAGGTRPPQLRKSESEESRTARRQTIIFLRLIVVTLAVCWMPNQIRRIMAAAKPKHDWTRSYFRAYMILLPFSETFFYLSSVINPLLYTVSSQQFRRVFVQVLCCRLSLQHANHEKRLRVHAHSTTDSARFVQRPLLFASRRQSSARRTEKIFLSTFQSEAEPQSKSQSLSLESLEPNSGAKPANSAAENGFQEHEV
Assay: luciferase assay system (SRE luciferase reporter gene, CV-1 cells expressing GPR39)
Assay type: cell-based
Design: expressed in transfected cells; host or cells: CV-1 fibroblast cell line (Korea Cell Line Bank), adenoviral transduction at 50 MOI

[1] = CV-1 cells, GPR39 and SRE luciferase adenovirus, 6 hours treatment

## CCCCCCCC(=O)NCCCC[C@H](NC(=O)[C@@H](N)Cc1cn(C(c2ccccc2)(c2ccccc2)c2ccccc2)cn1)C(=O)N[C@H](Cc1ccc(C)cc1)C(=O)N[C@@H](Cc1ccc(O)cc1)C(=O)O [HKFY-30, ((R)-2-((S)-2-((S)-2-amino-3-(1-trityl-1H-imidazol-4-yl)propanamido)-6-octanamidohexanamido)-3-(p-tolyl)propanoyl)-L-tyrosine] (H-[His(Trt)]K(Octanoyl)[dPhe(4-Me)]Y-OH)
  ECmax (−fold induction over basal): 23.88 ± 3.04 fold induction over basal
Comment on Table 3
  activity level for GPR39 (in words): higher activity level than other HKFY derivatives
Comment on Table 3, derivatives composed of d-Phe(methyl)
  activity and ECmax value for GPR39 (in words): most excellent activity and high ECmax value

## CCCCCCCC(=O)NCCCC[C@H](NC(=O)[C@H](N)Cc1cn(C(c2ccccc2)(c2ccccc2)c2ccccc2)cn1)C(=O)N[C@H](Cc1ccc(C)cc1)C(=O)N[C@@H](Cc1ccc(O)cc1)C(=O)O [HKFY-31, ((R)-2-((S)-2-((R)-2-amino-3-(1-trityl-1H-imidazol-4-yl)propanamido)-6-octanamidohexanamido)-3-(p-tolyl)propanoyl)-L-tyrosine] (H-[dHis(Trt)]K(Octanoyl)[dPhe(4-Me)]Y-OH)
  ECmax (−fold induction over basal): 20.9 ± 2.51 fold induction over basal

## CCCCCCCC(=O)NCCCC[C@H](NC(=O)[C@@H](N)Cc1cn(C(c2ccccc2)c2ccc(F)cc2F)cn1)C(=O)N[C@H](Cc1ccc(C)cc1)C(=O)N[C@@H](Cc1ccc(O)cc1)C(=O)O (stereo partly drawn) [HKFY-32, ((2R)-2-((2S)-2-((2S)-2-amino-3-(1-((2,4-difluorophenyl)(phenyl)methyl)-1H-imidazol-4-yl)propanamido)-6-octanamidohexanamido)-3-(p-tolyl)propanoyl)-L-tyrosine]
  ECmax (−fold induction over basal): 21.5 ± 2.7 fold induction over basal

## CCCCCCCC(=O)NCCCC[C@H](NC(=O)[C@@H](N)Cc1cn(C(c2ccccc2)c2ccccc2)cn1)C(=O)N[C@@H](Cc1ccccc1)C(=O)N[C@@H](Cc1ccc(O)cc1)C(=O)O [HKFY-33, N2-(Nt-benzhydryl-L-histidyl)-N6-octanoyl-L-lysyl-L-phenylalanyl-L-tyrosine] (H-[His(τ-CHPh2)]K(Octanoyl)FY-OH)
  ECmax (−fold induction over basal): 20 ± 0.57 fold induction over basal

## CCCCCCCC(=O)NCCCC[C@H](NC(=O)[C@@H](N)Cc1cn(C(c2ccccc2)c2ccccc2)cn1)C(=O)N[C@H](Cc1ccc(C)cc1)C(=O)N[C@@H](Cc1ccc(OS(=O)(=O)O)cc1)C(=O)O [HKFY-35, (S)-2-((R)-2-((S)-2-((S)-2-amino-3-(1-benzhydryl-1H-imidazol-4-yl)propanamido)-6-octanamidohexanamido)-3-(p-tolyl)propanamido)-3-(4-(sulfooxy)phenyl)propanoic acid] (H-[His(τ-CHPh2)]K(Octanoyl)[dPhe(4-Me)][sY]-OH)
  ECmax (−fold induction over basal): 18.9 ± 0.41 fold induction over basal

## CCCCCCCC(=O)NCCCC[C@H](NC(=O)[C@@H](N)Cc1cn(C(c2ccccc2)c2ccccc2)cn1)C(=O)N[C@H](Cc1ccc(C)cc1)C(=O)N[C@@H](Cc1c(C)cc(O)cc1C)C(=O)O [HKFY-36, (S)-2-((R)-2-((S)-2-((S)-2-amino-3-(1-benzhydryl-1H-imidazol-4-yl)propanamido)-6-octanamidohexanamido)-3-(p-tolyl)propanamido)-3-(4-hydroxy-2,6-dimethylphenyl)propanoic acid] (H-[His(τ-CHPh2)]K(Octanoyl)[dPhe(4-Me)][Dmt]-OH)
[1]
  ECmax (−fold induction over basal): 9.9 ± 0.28 fold induction over basal

## CCCCCCCC(=O)NCCCC[C@H](NC(=O)[C@H](Cc1cn(C(c2ccccc2)(c2ccccc2)c2ccccc2)cn1)NC(=O)[C@H](CO)NC(=O)CN)C(=O)N[C@@H](Cc1ccccc1)C(=O)N[C@@H](Cc1ccc(O)cc1)C(=O)O [HKFY-37, N2-(Na-glycyl-L-seryl-Nt-trityl-L-histidyl)-N6-octanoyl-L-lysyl-L-phenylalanyl-L-tyrosine] (H-GS[His(Trt)]K(Octanoyl)FY-OH)
  ECmax (−fold induction over basal): 16 ± 1.7 fold induction over basal

## CCCCCCCC(=O)NCCCC[C@H](NC(=O)[C@@H](N)Cc1cn(C(c2ccccc2)(c2ccccc2)c2ccccc2)cn1)C(=O)N[C@@H](Cc1ccccc1)C(=O)N[C@@H](Cc1ccc(O)cc1)C(=O)N[C@@H](CO)C(=O)N[C@@H](CC(=O)O)C(=O)N[C@@H](CCC(N)=O)C(=O)N[C@@H](CCC(N)=O)C(=O)N[C@@H](C)C(=O)N[C@@H](CCCNC(=N)N)C(=O)N[C@@H](Cc1ccccc1)C(N)=O [HKFY-38, (3S,6S,9S,12S,15S)-15-((S)-2-amino-3-(1-trityl-1H-imidazol-4-yl)propanamido)-12-benzyl-3-(((6S,9S,12S,15S)-1,18-diamino-6-(((S)-1-amino-1-oxo-3-phenylpropan-2-yl)carbamoyl)-12-(3-amino-3-oxopropyl)-1-imino-9-methyl-8,11,14,18-tetraoxo-2,7,10,13-tetraazaoctadecan-15-yl)carbamoyl)-9-(4-hydroxybenzyl)-6-(hydroxymethyl)-5,8,11,14,21-pentaoxo-4,7,10,13,20-pentaazaoctacosanoic acid] (H-[His(Trt)]K(Octanoyl)FYSDQQARF-NH2)
  ECmax (−fold induction over basal): 16.5 ± 0.02 fold induction over basal

## CCCCCCCC(=O)NCCCC[C@H](NC(=O)[C@@H](N)Cc1cn(C(c2ccccc2)(c2ccccc2)c2ccccc2)cn1)C(=O)N[C@@H](Cc1ccccc1)C(=O)N[C@@H](Cc1ccc(O)cc1)C(=O)N[C@@H](CO)C(=O)N[C@@H](Cc1c[nH]cn1)C(=O)N[C@@H](CCC(N)=O)C(=O)N[C@@H](CCC(N)=O)C(=O)N[C@@H](C)C(=O)N[C@@H](CCCNC(=N)N)C(=O)N[C@@H](Cc1ccccc1)C(N)=O [HKFY-40, (S)-2-((2S,5S,8S,11S,14S)-2-((1H-imidazol-4-yl)methyl)-14-((S)-2-amino-3-(1-trityl-1H-imidazol-4-yl)propanamido)-11-benzyl-8-(4-hydroxybenzyl)-5-(hydroxymethyl)-4,7,10,13,20-pentaoxo-3,6,9,12,19-pentaazaheptacosanamido)-N1-((S)-5-amino-1-(((S)-1-(((S)-1-(((S)-1-amino-1-oxo-3-phenylpropan-2-yl)amino)-5-guanidino-1-oxopentan-2-yl)amino)-1-oxopropan-2-yl)amino)-1,5-dioxopentan-2-yl)pentanediamide] (H-[His(Trt)]K(Octanoyl)FYSHQQARF-NH2)
  ECmax (−fold induction over basal): 13.4 ± 0.02 fold induction over basal

## CCCCCCCC(=O)NCCCC[C@H](NC(=O)[C@@H](N)Cc1cn(C(c2ccccc2)(c2ccccc2)c2ccccc2)cn1)C(=O)N[C@@H](Cc1ccccc1)C(=O)N[C@@H](Cc1ccc(O)cc1)C(=O)N[C@@H](CO)C(=O)N[C@@H](CCC(N)=O)C(=O)N[C@@H](CC(=O)O)C(=O)NCC(=O)N[C@@H](C)C(=O)N[C@@H](CCCNC(=N)N)C(=O)N[C@@H](Cc1ccccc1)C(N)=O [HKFY-41, (3S,6S,9S,12S,15S,18S)-3-((2-(((S)-1-(((S)-1-(((S)-1-amino-1-oxo-3-phenylpropan-2-yl)amino)-5-guanidino-1-oxopentan-2-yl)amino)-1-oxopropan-2-yl)amino)-2-oxoethyl)carbamoyl)-18-((S)-2-amino-3-(1-trityl-1H-imidazol-4-yl)propanamido)-6-(3-amino-3-oxopropyl)-15-benzyl-12-(4-hydroxybenzyl)-9-(hydroxymethyl)-5,8,11,14,17,24-hexaoxo-4,7,10,13,16,23-hexaazahentriacontanoic acid] (H-[His(Trt)]K(Octanoyl)FYSQDGARF-NH2)
[1]
  ECmax (−fold induction over basal): 12.2 ± 0.02 fold induction over basal
